Test results as given in article PMC5328764 (Physiological Reports, 2017).

How the values were obtained:
[1] = Plasma concentrations of the test substances by radioimmunoassay after s.c. injection; settings: eight healthy volunteers
healthy volunteers [2] = experiment: Plasma glucose after s.c. injection (glucose oxidase method); format: in vivo, human
Procedure: Plasma glucose was measured by the glucose oxidase method using a glucose analyzer (Yellow Springs Instrument, YSI Inc., Yellow Springs, OH).
(§1) Intravenous access was then established. […] Baseline measurements were made twice during the resting period.

healthy volunteers [3] = experiment: Serum insulin and C‐peptide after s.c. injection (ECLIA); format: in vivo, human; settings: fasting healthy volunteers n = 8; for Effect on insulin and C‐peptide (in words): s.c. 1.5 nmol/kg, 0–120 min
Procedure: Plasma insulin and C‐peptide levels were measured on a Cobas® 8000, e602 module (Roche Diagnostics GmbH, Mannheim) using, respectively, Cobas Insulin reagents and Cobas Insulin Calibrator, and Cobas C‐Peptide reagents and Cobas C‐Peptide Calibrator. The Cobas module employs a sandwich electro‐chemiluminescense immunoassay (ECLIA).
as §1
Analyses of normally distributed data were conducted by two‐way ANOVA followed by Tukey post hoc testing if the ANOVA indicated significant differences between the study days.

healthy volunteers [4] = experiment: Cardiovascular measurements by task force monitor (heart rate, blood pressure, cardiac output, stroke volume); format: in vivo, human; settings: for Effect on heart rate (in words): s.c. GLP‐1 and GLP‐1 9–36amide 1.5 nmol/kg, exenatide 10 μg, 0–120 min, two‐way ANOVA, Tukey post hoc
Procedure: Cardiac parameters were continuously measured from time −15 to 120 min. The task force monitor (TFM; CN Systems, Graz, Austria) continuously measures the heart rate, blood pressure (by finger plethysmography), cardiac output (by impedance cardiography), and calculates stroke volume (SV). The continuous, beat‐to‐beat measuring of blood pressure was supplemented with the conventional noninvasive oscillometric blood pressure measurement. […] This was done to eliminate brief or short‐lasting changes in cardiac parameters due to accidental movement of the volunteer or slight disturbance during scanning.
as §1

healthy volunteers [5] = experiment: Doppler ultrasound blood flow in superior mesenteric artery, celiac trunk and renal artery (RI, TAMV); format: in vivo, human; settings: healthy volunteers n = 8, s.c. GLP‐1 and GLP‐1 9–36amide 1.5 nmol/kg, exenatide 10 μg, 0–120 min
Text: as §1

healthy volunteers [6] = experiment: Plasma pancreatic polypeptide (PP) after s.c. injection (radioimmunoassay); format: in vivo, human; settings: fasting healthy volunteers; s.c. GLP‐1 1.5 nmol/kg; due to excursions in a subset of participants
Text: as §1

[7] = healthy volunteers n = 8, supine

Row | Compound | Time at which GLP‐1 9–36amide concentrations reached near basal levels ([1]; 1.5 nmol/kg GLP‐1 9–36amide s.c.) | Plasma concentration of the metabolite GLP‐1 9–36amide (total GLP‐1 assay), peak ([1]; 1.5 nmol/kg GLP‐1 9–36amide s.c., at 30 min, radioimmunoassay, mean) | Effect on plasma glucose (in words) (healthy volunteers [2]; fasting healthy volunteers n = 8, s.c. exenatide 10 μg, GLP‐1 9–36amide 1.5 nmol/kg, 0–120 min) | Effect on insulin and C‐peptide (in words) (healthy volunteers [3]) | Effect on heart rate (in words) (healthy volunteers [4]; [7]) | Changes in blood flow parameters in the mesenteric or renal arteries (healthy volunteers [5]) | Time at which intact GLP‐1 reached basal levels ([1]; 1.5 nmol/kg GLP‐1 s.c.) | Total plasma GLP‐1 concentration, peak mean value on the GLP‐1 day ([1]; 1.5 nmol/kg GLP‐1 s.c., total = GLP‐1 7–36amide + 9–36amide, reached within 15 min, still elevated at 120 min, radioimmunoassay, mean) | Time of peak or plateau plasma concentration of the injected peptide (exendin‐4 or total GLP‐1 assay) ([1]; s.c., exenatide 10 μg, GLP‐1 and GLP‐1 9–36amide 1.5 nmol/kg) | Plasma glucose nadir (healthy volunteers [2]; fasting healthy volunteers n = 8, s.c. 1.5 nmol/kg, from around 5 mmol/L, nadir at 30 min, mean) | Time of plasma glucose nadir (healthy volunteers [2]; fasting healthy volunteers n = 8, s.c. GLP‐1 1.5 nmol/kg, exenatide 10 μg) | Time until which C‐peptide levels remained elevated (healthy volunteers [3]; s.c. GLP‐1 1.5 nmol/kg) | Time of insulin peak (healthy volunteers [3]; s.c. GLP‐1 1.5 nmol/kg, exenatide 10 μg (for exenatide insulin and C‐peptide)) | Time of peak heart rate increase (healthy volunteers [4]; healthy volunteers n = 8, supine, s.c. GLP‐1 1.5 nmol/kg) | Maximum increase in heart rate (healthy volunteers [4]; healthy volunteers n = 8, supine, s.c. GLP‐1 1.5 nmol/kg, peaking at 30 min) | Effect on cardiac output (in words) (healthy volunteers [4]; healthy volunteers n = 8, impedance cardiography, 120 min period, on the placebo day decrease by about 1 L/min) | Effect on stroke volume (in words) (healthy volunteers [4]; healthy volunteers n = 8, s.c. GLP‐1 1.5 nmol/kg, lower values at 15 and 30 min) | Effect on plasma pancreatic polypeptide (PP) (in words) (healthy volunteers [6])
1 | GLP‐1_9–36amide | 120 min | about 290 pmol/L | Neither saline nor the metabolite, GLP‐1_9–36amide influenced plasma glucose levels | no significant changes | remained stable | Neither GLP‐1, GLP‐1_9–36 amide, exenatide nor saline elicited any changes in blood flow parameters | – | – | – | – | – | – | – | – | – | – | – | –
2 | CC[C@H](C)[C@H](NC(=O)[C@H](Cc1ccccc1)NC(=O)[C@H](CCC(=O)O)NC(=O)[C@H](CCCCN)NC(=O)[C@H](C)NC(=O)[C@H](C)NC(=O)[C@H](CCC(N)=O)NC(=O)CNC(=O)[C@H](CCC(=O)O)NC(=O)[C@H](CC(C)C)NC(=O)[C@H](Cc1ccc(O)cc1)NC(=O)[C@H](CO)NC(=O)[C@H](CO)NC(=O)[C@@H](NC(=O)[C@H](CC(=O)O)NC(=O)[C@H](CO)NC(=O)[C@@H](NC(=O)[C@H](Cc1ccccc1)NC(=O)[C@@H](NC(=O)CNC(=O)[C@H](CCC(=O)O)NC(=O)[C@H](C)NC(=O)[C@@H](N)Cc1c[nH]cn1)[C@@H](C)O)[C@@H](C)O)C(C)C)C(=O)N[C@@H](C)C(=O)N[C@@H](Cc1c[nH]c2ccccc12)C(=O)N[C@@H](CC(C)C)C(=O)N[C@H](C(=O)N[C@@H](CCCCN)C(=O)NCC(=O)N[C@@H](CCCNC(=N)N)C(N)=O)C(C)C [GLP‐1, glucagon‐like peptide‐1] | – | – | – | caused a rise in insulin | significantly increased heart rate | Neither GLP‐1, GLP‐1_9–36 amide, exenatide nor saline elicited any changes in blood flow parameters | around 90 min | around 300 pmol/L | ≤ 15 min | 3.5 mmol/L | 30 min | 60 min | 15 min | 30 min | about 14 beats per min | tended to rise | appeared to fall more | mean PP levels rose late
